Laboratory results taken from the NIST ThermoML archive (doi:10.1016/j.tca.2017.04.014).

Assay: molar heat capacity at constant pressure; xn = mol fraction of the nth substance listed
Details: 101.3 kPa, Crystal, DSC

[O-2].[O-2].[Th+4] [thorium dioxide] + [O-2].[O-2].[U+4]
molar heat capacity at constant pressure [J/K/mol]
Details	x1 = 0.3	x1 = 0.5	x1 = 0.6	x1 = 0.7	x1 = 0.8	x1 = 0.9	x1 = 1
300 K	73.2	70.4	67.7	66.6	66.7	65.1	62.1
310 K	73.7	71.8	69.3	67.6	67.3	66.4	61.8
320 K	75.6	72.6	70.2	68.6	67.9	67.5	62.8
330 K	75.9	73.8	71	69.3	69.1	68	63.5
340 K	76.7	75.1	71.9	69.9	69.7	69	64.2
350 K	78	76.1	72.6	70.4	70.8	70.1	65.1
360 K	78.6	76.8	73.3	70.8	72.1	71.7	65.6
370 K	78.9	77	74.5	71.4	72.3	71.7	65.9
380 K	79.8	77.5	75.1	72	72.3	72	66.8
390 K	80.2	79	75.8	72.9	74.1	73	67.3
400 K	80.8	79.3	76.4	73.9	74.8	73.8	67.7
410 K	81.3	79.6	76.8	73.8	74.8	74.4	68
420 K	81.5	80.3	77.3	75.1	75.4	74.1	68.4
430 K	82.1	81.2	77.5	75.5	75.9	74.4	68.6
440 K	82.3	81.2	77.9	75.8	76.4	74.9	68.9
450 K	83.3	82.1	78.6	75.7	76.9	76	69.6
460 K	83.7	82.2	79.4	75.8	77.2	76.2	69.8
470 K	83.9	82.8	79.5	76.2	77.5	76.7	70.1
480 K	84	83.5	80.2	76.6	77.3	77	70.2
490 K	84.5	83	80	77.9	78	77	70.5
500 K	84.9	83.8	80.7	78.1	78.8	77	70.7
510 K	85.5	84.1	80.7	77.9	78.6	78.3	70.9
520 K	85.3	84.8	81	78.3	79	78.6	71.2
530 K	85.5	84.5	81	78.4	79.6	78.6	71.4
540 K	86.4	85	81.5	78.9	79.7	78.9	71.7
550 K	86.6	85.1	82.9	79.6	80	78.9	71.9
560 K	86.7	85.8	82.8	79.8	80.2	79.1	72
570 K	86.7	86.2	82.8	80.3	80.1	79.7	72.1
580 K	87.1	85.6	83.4	80.5	80.2	79.7	72.3
590 K	87.4	86.7	83.4	80.6	80.5	79.7	72.5
600 K	88	87	83.7	80.6	80.6	79.7	72.5
610 K	87.5	86.6	84.4	80.6	80.6	79.7	72.5
620 K	88	86.9	84.8	81.2	80.6	79.9	73
630 K	88.5	87.5	84.2	81.4	81.1	80.2	73
640 K	88.7	87.2	85.1	81.5	81.1	80.5	73.3
650 K	88.9	87.3	85.1	82	80.9	80.7	73.6
660 K	89	87.6	84.9	81.8	81.6	79.7	73.5
670 K	88.9	88.3	85.8	82.3	81.9	79.7	73.6
680 K	89.4	88.2	86.4	82.4	81.5	79.7	73.6
690 K	90.2	88.2	86.4	82.4	81.6	79.9	73.4
700 K	90.4	88.6	86.4	83.3	81.7	80.2	73.8
710 K	91.2	89.5	86.4	83.3	82.2	80.5	74.5
720 K	91.9	89.2	86.7	83.3	82.4	80.7	74.5
730 K	92.2	90.1	87.3	83.3	82.7	81.2	74.6
739 K	–	–	–	–	–	–	74.7
740 K	92.9	90.4	87.7	83.3	82.7	81.4	–
750 K	93.1	91	87.8	83.6	82.7	81.3	74.6
760 K	93.5	91	89.1	83.9	82.9	81.5	75
770 K	94	91.7	89.1	84.3	82.8	81.5	75.3
780 K	94.2	91.8	89.1	84.5	83.1	81	75.3
790 K	94.3	92.3	89.1	84.9	83	81.8	75.3
800 K	94.4	92.3	89.1	84.9	83.3	81.3	75.7
810 K	95	92.7	89.8	85.3	83.1	82.3	75.7
820 K	95.3	92	90.2	85.7	83.2	82.3	75.7
830 K	95.6	92.8	89.5	86	83.3	82.3	75.9
840 K	96	92.9	90.3	86	83.5	82.3	76
850 K	96.1	93.2	90.7	86	83.6	82.3	76.1
860 K	96.1	93.4	90.7	86	83.7	83.4	76.4
870 K	96.3	93.8	90.8	86.4	84	83.9	76.1
